The values below come from patent US12649980B2, “Three-dimensional surface for protein and small molecule microarrays” (The Johns Hopkins University, priority 2019, dated 2026).

The test system of one test is human red blood cells. The test can be described thus: [3H]-2DG uptake in human red blood cells. The conditions noted are these: human red blood cells that exclusively express GLUT1; read-out: IC50 [3H]-2DG uptake into red blood cells. Format: cell-based. The protocol:
To determine which of the 17 rapafucin hits inhibited the transporter activity of GLUT1, an orthogonal glucose uptake assay using 2-deoxy-D-[3H] glucose ([3H]-2DG), a nonhydrolyzable, radioactive glucose analog, was employed. Each hit was separately incubated with A549 cells for 10 min before the amount of [3H]-2DG taken up by the cells was measured using scintillation counting. […] The effect of JW11-D2 on uptake of [3H]-2DG in human red blood cells that exclusively express GLUT1 was then determined. Helgerson and Carruthers, J. Biol. Chem. 1987, 262, 5464-5475. […] To further improve the potency of JW11-D2, a structure-activity relationship (SAR) study was performed by synthesizing 21 new analogs of JW11-D2 using different amino acid building blocks.
(§1) The inhibitory activity of compounds on glucose transport was analyzed by measuring the cell uptake of [3H]-2DG as previously described. Ulanovskaya et al., Chem. Biol. 2011, 18, 222-230. Briefly, cells were washed twice and incubated in low-glucose medium for 10 min. Cells were added drugs and incubated for another 10 min before adding [3H]-2DG. After 10 min incubation with [3H]-2DG, cells were washed twice and lysed with 0.2 N NaOH plus 0.2% SDS. The cell lysate was transferred to a new tube containing 1 mL of optiphase supermix. Glucose uptake was quantified with a scintillation counter.

A further test addresses FKSP13 (Homo sapiens, UniProt P26885). Description: peptidyl prolyl cis-trans isomerase activity inhibition, FKSP13. Type of test: biochemical. The following applies: inhibition of prolyl isomerase activity.
The test system of another test is MCF-7 cells. The test can be described thus: cell cycle analysis of MCF-7 cells. Format: cell-based, human. The conditions noted are these: MCF-7, 5 μM, 24 h. The protocol: (§2) The effects of RgA on cell growth, survival, and cell death was then determined. […] Treatment with 5 μM of RgA caused an increase in G1 phase by approximately 23% in comparison to control and approximately 7% and 17% decreases in cells in S and G2/M phases, respectively. The induction in G1 phase cell cycle arrest by RgA is dose-dependent (FIG. 5A, FIG. 16). […] Jones and Thompson, Genes Dev. 2009, 23, 537-548. […] The IC50 values of RgA against several human cancer cell lines also was determined using the alamar blue cell proliferation assay.
MCF-7 cells were seeded at 5×10^5 cells/15 cm dish, allowed to recover overnight and subsequently treated with drugs or vehicle control for 24 h. Media was then collected and set aside. Cells were washed with PBS, trypsinized, combined with set aside media, pelleted at 500×g and then washed with 10 mL PBS followed by another 500×g spin. The pellet was resuspended in 0.5 mL PBS and added dropwise using a Pasteur pipette to 2 mL 75% ethanol in a 5 mL polystyrene tube being slowly agitated by a vortex. The cells were stored at 4° C. until staining. To do so, cells were pelleted at 500×g, resuspended in 5 mL PBS, rested for 60 seconds, pelleted again and washed by 5 mL PBS. The cell pellet was then resuspended in 0.5 mL staining solution (0.1% Triton-X-100, 0.2 mg/mL DNase free RNase A, and 0.02 mg/mL propidium iodide). Cells were allowed to stain for 30 min prior for analysis. Propidium iodide incorporation was measured using a FACSCalibur. The percentage of cells in each cell cycle stage was determined with FlowJo (v7.5.5) using a Watson analysis.

Test [1] concerns PANC10.05. The test can be described thus: [3H]-2DG uptake assay in PANC10.05 cells. Type of test: cell-based, human. The conditions noted are these: PANC 10.05. The protocol: Hay, Nat. Rev. […] To determine whether RgA could inhibit glucose uptake in cancer cell lines in addition to A549, the impact of RgA on [3H]-2DG uptake in six other cancer cell lines, including HCC1954, MCF-7, PANC10.05, Jurkat T, HeLa, and RKO was measured (FIG. 3A, Table 3).
as §1

For the next test, the target named is FKBP52 (Homo sapiens, UniProt Q02790). Description: peptidyl prolyl cis-trans isomerase activity inhibition, FKBP52. Type of test: biochemical. The following applies: inhibition of prolyl isomerase activity.
Test [2] deals with PANC10.05. Description: Alamar blue cell proliferation assay, PANC10.05. Format: cell-based, human. The conditions noted are these: PANC 10.05, 72 h; read-out: IC50 Assay B (Alamar blue cell proliferation). The procedure: as §2
(§3) Cells were seeded into a 96-well plate (Costar) in 180 μL culture media. After an overnight recovery, drugs were added and incubated for 72 h. After drug incubation, cells were added with 20 μL of alamar blue reagent and the plates were incubated at 37° C. for 6 h before reading the fluorescence (544 nm Ex/590 nm Em) with a plate reader. GraphPad Prism (v4.03) software was used to determine IC50 values using a four parameter logistic regression.

Another test concerns A549. The test can be described thus: Alamar blue cell proliferation assay, A549. Type of test: cell-based, human. The following applies: A549, 72 h; read-out: IC50 Assay B (Alamar blue cell proliferation). The protocol:
as §2, §3
On the technique in general: Resazurin is reduced to fluorescent resorufin, in cell work by metabolically active cells.

The test system of test [3] is Jurkat T FKBP knock out cells. Description: [3H]-2DG uptake in Jurkat T FKBP12, FKBP51, FKBP52 knock out cells. Type of test: cell-based, human. The following applies: Jurkat T FKBP12, FKBP51, FKBP52 KO versus WT. The procedure:
To further determine the dependence of RgA on endogenous FKBP, three major isoforms of FKBP, FKBP12, FKBP51 and FKBP52 were knocked out using CRISPR-Cas9 in Jurkat T cells. Guo et al., Nat. Chem. 2019, 11, 254-263. Unlike ENT1 inhibitor rapacodin, Guo et al., Nat.
as §1

Another test relates to PARP and caspase 7. Description: Western blot of apoptosis markers in MCF-7 cells. The following applies: MCF-7, 5 μM, 72 h; inhibited by Z-VAD. Type of test: cell-based, human. The protocol: as §2
For western blot analysis, cells were harvested and lysed by RIPA buffer plus protease inhibitor. Cell lysates or samples from pull-down experiment were subjected to SDS/PAGE and then transferred to a nitrocellulose membrane. Membranes were first blocked in 5% (wt/vol) BSA in Tris-buffered saline plus 0.1% Tween 20 (TBST) at room temperature for 30 min and incubated with primary antibodies at 4° C. for overnight. Membranes were then washed three times with TBST and incubated with secondary antibodies at room temperature for another 1 h. Membranes were washed with TBST three times again and incubated with ECL substrate for 1 min at room temperature. Pictures were captured using a GeneSys Image Station.
(In general: A western blot detects proteins with antibodies after separation by electrophoresis.)

In the next test the test system is DLD1 WT. Description: [3H]-2DG uptake in DLD1 WT cells. The conditions noted are these: DLD1 wild type. Type of test: cell-based. The protocol: as §1

FKBP52, sequence (Q02790 whole entry, species assumed): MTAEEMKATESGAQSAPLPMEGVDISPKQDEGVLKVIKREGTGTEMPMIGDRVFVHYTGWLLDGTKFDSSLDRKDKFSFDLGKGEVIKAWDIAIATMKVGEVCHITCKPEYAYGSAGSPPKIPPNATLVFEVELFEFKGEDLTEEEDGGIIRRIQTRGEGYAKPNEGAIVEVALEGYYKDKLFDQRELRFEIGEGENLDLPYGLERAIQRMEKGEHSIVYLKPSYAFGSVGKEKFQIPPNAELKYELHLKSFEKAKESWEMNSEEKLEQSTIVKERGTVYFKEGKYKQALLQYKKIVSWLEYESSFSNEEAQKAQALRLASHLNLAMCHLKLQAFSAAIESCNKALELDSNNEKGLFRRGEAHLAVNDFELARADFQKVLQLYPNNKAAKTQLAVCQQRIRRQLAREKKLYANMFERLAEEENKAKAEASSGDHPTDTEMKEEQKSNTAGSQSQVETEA
FKSP13, sequence (P26885 22-142): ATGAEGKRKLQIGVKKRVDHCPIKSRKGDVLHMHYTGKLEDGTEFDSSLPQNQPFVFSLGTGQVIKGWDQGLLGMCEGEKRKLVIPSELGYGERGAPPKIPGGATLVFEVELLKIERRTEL

On to `CCC(C)C1C(=O)NCC(=O)N(C)CCC=CC(=O)OCC(C)(C)C(=O)C(=O)N2CCCCC2C(=O)OC(CCc2ccc(OC)c(OC)c2)c2cccc(c2)NC(=O)CCC(=O)N(C)C(CC(C)C)C(=O)NC(Cc2ccccc2)C(=O)N1C` (stereo not drawn) [JW11-D2, Rapaglutin A], for which the IC50 in the test with human red blood cells amounted to 34.2 nM; with PANC10.05 [1], 9.5 nM; in the test with PANC10.05 [2], 119 nM; in the test with A549 it was 189 nM. Besides, the values for the Ki on FKSP13 and on FKBP52 were 539 ± 207 nM and 32 ± 3 nM, respectively. Also, the “decrease in cells in G2/M phase” value with MCF-7 cells is given as around 17%. The “decrease in cells in S phase” value in the test on MCF-7 cells is “approximately 7%”. Also, in the test on MCF-7 cells, the “increase in G1 phase in comparison to control” value is recorded as “approximately 23%”. For the same molecule, in [3], the “effect of knockout of three FKBP isoforms on sensitivity of cells” value is reported as “negligible effects”. Further, in the test on PARP and caspase 7, the “PARP and caspase 7 cleavage (apoptosis)” value is “resulted in poly(ADP-ribose) polymerase (PARP) and caspase 7 cleavage”. Besides, the midpoint of the response in the test on DLD1 WT, the EC50, lay at 17.5 ± 2.5 nM.

For orientation: Ki means a measure of affinity in units of concentration, obtained from inhibition or displacement. For orientation: EC50 means the midpoint of the concentration-response curve. Lower therefore signals an effect from little substance.
